Measured values: patent US11938189B2, “Compositions and methods for stabilizing protein-containing formulations” (Genentech, Inc., priority 2010, dated 2024)
Each block holds one compound with its values, some of them ahead of it.

Assays:
[1] = system: anti-MUC16 monoclonal antibody; experiment: Shaking-induced aggregation (150 rpm), percent monomer by size-exclusion chromatography; format: physicochemical; settings: surfactant at one half of its CMC; shaking 150 rpm, 37° C., 64 hours; FIG. 1
Description: (§1) In this set of studies, a buffered solution (20 mM sodium phosphate buffer, pH 7.4) of monoclonal antibody was subjected to shaking on an orbital shaker at 150 rpm, at a controlled temperature of 37° C. These studies were carried out using a 3 ml solution fill of the antibody solution in a 6 cc glass vial. Samples were withdrawn at regular intervals and analyzed for percent monomer using size-exclusion chromatography. Various surfactants of the class of alkylglycosides were evaluated for their effectiveness to prevent protein aggregation during shaking. The surfactants were used at concentrations below their respective critical micelle concentration (CMC) or above their respective CMC.
The surfactants were employed at one half the concentration of their respective CMC values, i.e., 1.1 mM (0.035% w/v) n-decyl-β-D-glucopyranoside, 9 mM (0.24%) n-octyl-β-D-glucopyranoside and 0.04 mM (0.0035%) polysorbate 20.

[2] = system: anti-MUC16 monoclonal antibody; experiment: Stirring-induced aggregation (500 rpm), turbidity; format: physicochemical; settings: surfactant at one-tenth of its CMC; stirring 500 rpm, ambient temperature, 90 minutes; FIG. 2
Description: In this set of studies, a Tefloncoated magnetic stir bar was used to induce agitation in a buffered solution (20 mM histidine-acetate, pH 5.5) of monoclonal antibody. 3 ml of the antibody solution was filled in a 6 cc glass vial and the solution was stirred at 500 rpm using a Teflon-coated stir bar. The solution was stirred for a period of 90 minutes and samples were withdrawn at regular intervals and analyzed for turbidity as an indication of formation of insoluble aggregates. Various surfactants of the class of alkylglycosides were evaluated for their effectiveness to prevent protein aggregation during shaking. The surfactants were used at concentrations below their respective critical micelle concentration (CMC) or above their respective CMC.
FIGS. 2 and 3 show the time-course of turbidity formation in a solution of the anti-MUC16 monoclonal antibody following stirring at 500 rpm using a Teflon-coated magnetic bar at ambient temperature for a period of 90 minutes. Turbidity was evaluated in solutions containing no surfactant as well as in solutions containing different alkylglycoside surfactants or polysorbate 20. […]

[3] = system: anti-MUC16 monoclonal antibody; experiment: Shaking at 300 rpm, turbidity of antibody formulation; format: physicochemical; settings: shaking 300 rpm, 72 hours, 37° C.
Description: as §1
In FIG. 4, the effect of varying the concentration of n-octyl-β-D-glucopyranoside on the turbidity of anti-MUC16 monoclonal antibody formulations during shaking at 300 rpm for 72 hours at 37° C. was investigated.
(§2) In FIGS. 6-9, the effect of 0.23 mM (0.02% w/v) polysorbate 20 or 3.6 mM (0.1% w/v) n-octyl-β-D-glucopyranoside on the turbidity of aqueous formulations of an anti-MUC16 monoclonal antibody (FIG. 6), an anti-IgE monoclonal antibody (FIG. 7), an anti-CD11a monoclonal antibody (FIG. 8), and an anti-CD22 monoclonal antibody (FIG. 9), during shaking at 300 rpm for 72 hours at 37° C. was investigated.

[4] = system: anti-CD11a monoclonal antibody; experiment: as above; format: physicochemical; settings: 0.23 mM (0.02% w/v) polysorbate 20 or 3.6 mM (0.1% w/v) n-octyl-β-D-glucopyranoside; shaking 300 rpm, 72 hours, 37° C.; FIG. 8
Description: as §1, §2

[5] = system: anti-CD22 monoclonal antibody; experiment: as above; format: physicochemical; settings: 0.23 mM (0.02% w/v) polysorbate 20 or 3.6 mM (0.1% w/v) n-octyl-β-D-glucopyranoside; shaking 300 rpm, 72 hours, 37° C.; FIG. 9
Description: as §1, §2

[6] = system: anti-IgE monoclonal antibody; experiment: as above; format: physicochemical; settings: 0.23 mM (0.02% w/v) polysorbate 20 or 3.6 mM (0.1% w/v) n-octyl-β-D-glucopyranoside; shaking 300 rpm, 72 hours, 37° C.; FIG. 7
Description: as §1, §2

[7] = system: anti-MUC16 monoclonal antibody; experiment: Shaking at 300 rpm, percent monomer of antibody; format: physicochemical; settings: shaking 300 rpm, 72 hours, 37° C.
Description: as §1
In FIG. 5, the effect of varying the concentration of n-octyl-β-D-glucopyranoside on the percent monomer of the anti-MUC16 monoclonal antibody in solution, following shaking at 300 rpm at 37° C. for 72 hours was investigated.
as §2, with “10-13,” for “6-9,”, “percent monomer” for “turbidity”, “10),” for “6),”, “11),” for “7),”, “12),” for “8),”, “13),” for “9),”

[8] = system: anti-CD11a monoclonal antibody; experiment: Shaking at 300 rpm, percent monomer of antibody; format: physicochemical; settings: 3.6 mM (0.1% w/v); shaking 300 rpm, 72 hours, 37° C.; FIG. 12
Description: as §1
as §2, with “10-13,” for “6-9,”, “percent monomer” for “turbidity”, “10),” for “6),”, “11),” for “7),”, “12),” for “8),”, “13),” for “9),”

[9] = system: anti-CD22 monoclonal antibody; experiment: Shaking at 300 rpm, percent monomer of antibody; format: physicochemical; settings: 3.6 mM (0.1% w/v); shaking 300 rpm, 72 hours, 37° C.; FIG. 13
Description: as §1
as §2, with “10-13,” for “6-9,”, “percent monomer” for “turbidity”, “10),” for “6),”, “11),” for “7),”, “12),” for “8),”, “13),” for “9),”

[10] = system: anti-IgE monoclonal antibody; experiment: Shaking at 300 rpm, percent monomer of antibody; format: physicochemical; settings: 3.6 mM (0.1% w/v); shaking 300 rpm, 72 hours, 37° C.; FIG. 11
Description: as §1
as §2, with “10-13,” for “6-9,”, “percent monomer” for “turbidity”, “10),” for “6),”, “11),” for “7),”, “12),” for “8),”, “13),” for “9),”

[11] = system: anti-CD11a monoclonal antibody; experiment: Oxidation of Met256 on storage in surfactant-containing antibody solution; format: physicochemical; settings: 0.1% w/v surfactant, FIG. 15
Description: In a second experiment, oxidation of the Met256 amino acid residue in an anti-CD11a monoclonal antibody in solutions containing either n-decyl-β-D-glucopyranoside, n-octyl-β-D-glucopyranoside, or polysorbate 20 was evaluated. For this purpose, 3 ml of the buffered antibody solution (pH 6.0) containing 0.1% w/v of the surfactant was stored in 6 cc vials at either 5° C. or 40° C. for a period of either 2 or 4 weeks.

[12] = system: anti-CD22 monoclonal antibody; experiment: Fenton reagent-induced oxidation of Met and Trp residues (phenyl RP-HPLC); format: physicochemical; settings: 3.6 mM (0.1% w/v); 0.1 ppm Fe3+ and 1 ppm hydrogen peroxide, 2 or 4 weeks at 40° C., pH 5.5; compared with 0.23 mM polysorbate 20 and no surfactant; FIG. 16
Description: In a third experiment, Fenton reagent-induced oxidation of Met and Trp amino acid residues (i.e., amino acids known to be susceptible to oxidation) in an anti-CD22 monoclonal antibody was analyzed. Specifically, buffered (20 mM histidine acetate, pH 5.5) solutions of anti-CD22 monoclonal antibody containing 0.1 ppm Fe^3+ and 1 ppm hydrogen peroxide were prepared and stored for either 2 or 4 weeks at 40° C., either in the absence of surfactant or in the presence of 0.23 mM (0.02% w/v) polysorbate 20 or 3.6 mM (0.1% w/v) n-octyl-β-D-glucopyranoside. samples were then withdrawn and percent oxidation of Met and Trp residues was determined from the percent early peaks of the antibody eluting through a phenyl RP-HPLC column.

[13] = in water at 20-25° C.; cited from earlier work
[14] = Hydrogen peroxide formation in stored surfactant solutions (Amplex Red Hydrogen Peroxide assay); format: physicochemical; settings: 0.1% w/v surfactant in water, stored at 40° C. for one month; FIG. 14
Description: In a first experiment, solutions of surfactants of the class of alkylglycosides, i.e., n-decyl-β-D-glucopyranoside, n-octyl-β-D-glucopyranoside, and n-decyl-β-D-maltopyranoside, as well as polysorbate 20 at a concentration of 0.1% w/v in water were stored at 40° C. for a period of one month. Samples were then withdrawn and analyzed for the presence of hydrogen peroxide using the Amplex Red Hydrogen Peroxide assay. the results of these analyses are shown in FIG. 14.

[15] = system: Humanized anti-oxidized LDL monoclonal antibody; experiment: Light-induced oxidation of tryptophan residues (LC/MS/MS tryptic peptide map); format: physicochemical; settings: Light 24 hrs; 0.02% surfactant
Description: MAb samples and light treatment: Humanized anti-oxidized LDL monoclonal antibody, was produced at Genentech, Inc. from a CHO cell line. Three independent samples were prepared for photostability studies: 1) control sample, vial wrapped with aluminum foil; 2) test sample, vial light exposed (unwrapped); 3) test sample, vial light exposed (unwrapped) containing the specified non-ionic surfactant. Both control & light exposed samples were kept in a light box for 24 hrs. Light exposure following ICH guideline with following setting for a Atlas SUNTEST CPS+Light Box: Irradiance level=250 watts/square meter; Time set for 24 hours; Total UV dose=538 watt-hours/square meter; Total visible dose=1,320,000 lux-hours.
LC/MS/MS of tryptic MAb peptide map: Samples were digested with trypsin after reduction and alkylation. The resulting peptides were analyzed with a Thermo LTQ-Orbitrap mass spectrometer coupled with an Agilent 1200 capillary HPLC system. HPLC column: Jupiter 5 um C18 250×1.0 mm, flow rate: 70 uL/min, column oven temperature: 55° C. Solvent A: 0.1% TFA in water, B: 0.09% TFA in 90% ACN. Orbitrap setting: MS resolution 60000, MS/MS collected in data dependent mode, using LTQ.
The effect of light, and the protective effect of non-ionic surfactants, on the oxidation of tryptophan residues on an anti-oxidized LDL antibody was determined.

[16] = 0.23 mM (0.02% w/v) polysorbate 20 or 3.6 mM (0.1% w/v) n-octyl-β-D-glucopyranoside, FIG. 6

prevention of shaking-induced loss of percent monomer [1]: effective in preventing loss of monomer | increase in percent oxidized Met256 vs initial sample ([11]; pH 6.0, stored at 5° C. or 40° C. for 2 or 4 weeks): no significant increase | Fenton reagent-induced oxidation of susceptible amino acids (Trp, Met) [12]: inhibited
Compound: CCCCCCCCO[C@@H]1O[C@H](CO)[C@@H](O)[C@H](O)[C@H]1O [n-octyl-β-D-glucopyranoside]
prevention of turbidity development on stirring [2]: effective in preventing turbidity development | inhibition of visible antibody aggregates measured by turbidity formation [3, 16]: effectively inhibited the formation of visible antibody aggregates | inhibition of visible antibody aggregates measured by turbidity formation ([3]; 0.72, 1.8, 3.6, 9 and 18 mM n-octyl-β-D-glucopyranoside, FIG. 4): effectively inhibited the formation of visible antibody aggregates | inhibition of visible antibody aggregates measured by turbidity formation [4]: effectively inhibited the formation of visible antibody aggregates | inhibition of visible antibody aggregates measured by turbidity formation [5]: effectively inhibited the formation of visible antibody aggregates | inhibition of visible antibody aggregates measured by turbidity formation [6]: effectively inhibited the formation of visible antibody aggregates | maintenance of percent monomer upon shaking vs unshaken sample ([7]; 3.6 mM (0.1% w/v), FIG. 10): effectively maintained the percent monomer | maintenance of percent monomer upon shaking vs unshaken sample ([7]; all concentrations tested (0.72-18 mM), FIG. 5): effectively maintained the percent monomer | maintenance of percent monomer upon shaking vs unshaken sample [8]: effectively maintained the percent monomer | maintenance of percent monomer upon shaking vs unshaken sample [9]: effectively maintained the percent monomer | maintenance of percent monomer upon shaking vs unshaken sample [10]: effectively maintained the percent monomer | CMC Value [13]: 18 mM | CMC Value (w/v) [13]: 0.53% w/v

hydrogen peroxide formed in surfactant solution [14]: about 10 μM | percent of Met256 residues oxidized ([11]; pH 6.0, storage at 40° C. for 4 weeks): approximately 16% | percent of Met256 residues oxidized ([11]; pH 6.0, time zero): approximately 2% | % Oxidized Trp33 [15]: 0.6% | % Oxidized Trp92 [15]: 8.9%
Compound: polyoxyethylene sorbitan monolaurate [polysorbate 20, reference compound]
prevention of shaking-induced loss of percent monomer [1]: not effective in preventing shaking-induced loss of monomer | prevention of turbidity development on stirring [2]: effective in preventing turbidity development | inhibition of visible antibody aggregates measured by turbidity formation [3, 16]: effectively inhibited the formation of visible antibody aggregates | inhibition of visible antibody aggregates measured by turbidity formation [4]: effectively inhibited the formation of visible antibody aggregates | inhibition of visible antibody aggregates measured by turbidity formation [5]: effectively inhibited the formation of visible antibody aggregates | inhibition of visible antibody aggregates measured by turbidity formation [6]: effectively inhibited the formation of visible antibody aggregates
